Assay results published in patent US10501479B2, “Benzenesulfonyl-asymmetric ureas and medical uses thereof” (HELSINN HEALTHCARE SA, priority 2016, dated 2019).
Where two headings read alike, the source gives them in different places.

How the values were obtained:
Format in all cases: cell-based
[1] = target: T1, recombinant human ghrelin receptor (HEK293/GRLN) (Homo sapiens, UniProt Q92847); experiment: Ghrelin inverse agonist potency (EC50) with IP-1 (IP-One HTRF) assay; settings: IP-1 assay
T1 construct: expressed in transfected cells
T1 sequence (Q92847 whole entry): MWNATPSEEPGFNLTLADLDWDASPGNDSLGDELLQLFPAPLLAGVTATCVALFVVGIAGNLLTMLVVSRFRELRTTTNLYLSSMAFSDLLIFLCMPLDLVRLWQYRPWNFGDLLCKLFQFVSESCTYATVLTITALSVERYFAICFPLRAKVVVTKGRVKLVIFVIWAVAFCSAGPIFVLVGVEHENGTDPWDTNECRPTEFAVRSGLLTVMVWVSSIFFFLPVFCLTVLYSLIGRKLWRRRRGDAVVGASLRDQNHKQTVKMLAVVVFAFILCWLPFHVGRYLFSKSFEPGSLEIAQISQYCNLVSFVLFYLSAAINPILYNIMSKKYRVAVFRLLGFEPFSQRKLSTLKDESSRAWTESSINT
Method in brief: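 IP-1 accumulation was measured by HTRF (IP1-d2/Tb-cryptate, 620/665 nm read after 1 hour at room temperature) following 1 hour of compound treatment at 37° C. Cells were HEK293 stably expressing human ghrelin receptor, plated a day earlier on Matrigel. Inverse agonist potency was reported as EC50.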

[2] = target: T2, GHSR-1a (HEK293/GHSR1a cell line) (Homo sapiens, UniProt Q92847); experiment: Ghrelin agonist potency (EC50) with calcium FLIPR assay
T2 construct: expressed in transfected cells; host or cells: HEK293/GHSR1a cell line
T2 sequence (Q92847 whole entry): as above
Method in brief: (§1)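 The cells were plated a day ahead and loaded with a calcium-sensitive dye. Test compound was then added and incubated 15 min, followed by ghrelin. Antagonist potency was calculated from inhibition of the response to 10 nM ghrelin, and agonist potency from the calcium rise caused by compound alone.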

[3] = target: T2, GHSR-1a (HEK293/GHSR1a cell line); experiment: Ghrelin antagonist potency (IC50) with calcium FLIPR assay, ghrelin 10 nM
Method in brief: as §1

[4] = HEK293/GRLN, read-out: Activity EC50 (ghrelin inverse agonist potency)
[5] = HEK293/GHSR1a, read-out: Activity EC50/EMax: EC50 (ghrelin agonist potency)
[6] = HEK293/GHSR1a, ghrelin 10 nM, read-out: Activity IC50 (ghrelin antagonist potency)

SMILES	EC50 [1, 4]	EC50 [2, 5]	IC50 [3, 6]	EC50 ([1]; ghrelin inverse agonist potency, read-out: Activity EC50)	EC50 ([2]; ghrelin agonist potency, read-out: Activity EC50/EMax)	IC50 ([3]; ghrelin antagonist potency, read-out: Activity IC50)
CC(NC(=O)Nc1ccc(S(=O)(=O)Cc2ccc3c(c2)CNC3)cc1F)c1c(F)cccc1F (stereo not drawn) [H1411, 1-(1-(2,6-difluorophenyl)ethyl)-3-(2-fluoro-4-((isoindolin-5-ylmethyl)sulfonyl)phenyl)urea]	17.8 nM	> 30000 nM	124 nM	–	–	–
COc1cc(S(=O)(=O)Cc2ccc3c(c2)CCNC3)ccc1NC(=O)N(C)C(C)c1ccccc1 (stereo not drawn) [H1413, 3-(2-methoxy-4-(((1,2,3,4-tetrahydroisoquinolin-6-yl)methyl)sulfonyl)phenyl)-1-methyl-1-(1-phenylethyl)urea]	225 nM	> 30000 nM	681 nM	–	–	–
CC(c1ccccc1)N(C)C(=O)Nc1ccc(S(=O)(=O)Cc2ccc3c(c2)CCNC3)cc1F (stereo not drawn) [H1414, 3-(2-fluoro-4-(((1,2,3,4-tetrahydroisoquinolin-6-yl)methyl)sulfonyl)phenyl)-1-methyl-1-(1-phenylethyl)urea]	589 nM	> 30000 nM	2090 nM	–	–	–
CC1Cc2cc(CS(=O)(=O)c3ccc(NC(=O)N(C)Cc4ccccc4)cc3)ccc2CN1 (stereo not drawn) [H1416, 1-benzyl-1-methyl-3-(4-(((3-methyl-1,2,3,4-tetrahydroisoquinolin-6-yl)methyl)sulfonyl)phenyl)urea]	26.6 nM	> 30000 nM	1040 nM	–	–	–
CC1c2ccccc2CCN1C(=O)Nc1ccc(S(=O)(=O)Cc2ccc3c(c2)CN(C)C3)cc1 (stereo not drawn) [H1418, 1-methyl-N-(4-(((2-methylisoindolin-5-yl)methyl)sulfonyl)phenyl)-3,4-dihydroisoquinoline-2(1H)-carboxamide]	69.5 nM	> 30000 nM	2700 nM	–	–	–
COc1cc(S(=O)(=O)Cc2ccc3c(c2)CCN(C)C3)ccc1NC(=O)N[C@H](C)c1ccc(OC)c(Cl)c1Cl [H1422, (R)-1-(1-(2,3-dichloro-4-methoxyphenyl)ethyl)-3-(2-methoxy-4-(((2-methyl-1,2,3,4-tetrahydroisoquinolin-6-yl)methyl)sulfonyl)phenyl)urea]	0.7 nM	> 30000 nM	29.4 nM	–	–	–
COc1ccc([C@@H](C)NC(=O)Nc2ccc(S(=O)(=O)Cc3ccc4c(c3)CCN(C)C4)cc2F)c(Cl)c1Cl [H1423, (R)-1-(1-(2,3-dichloro-4-methoxyphenyl)ethyl)-3-(2-fluoro-4-(((2-methyl-1,2,3,4-tetrahydroisoquinolin-6-yl)methyl)sulfonyl)phenyl)urea]	3.77 nM	> 30000 nM	114 nM	–	–	–
COc1cc(S(=O)(=O)Cc2cc(F)c3c(c2)CCNC3)ccc1NC(=O)NC(C)c1cccc(Cl)c1Cl (stereo not drawn) [H1424, 1-(1-(2,3-dichlorophenyl)ethyl)-3-(4-(((8-fluoro-1,2,3,4-tetrahydroisoquinolin-6-yl)methyl)sulfonyl)-2-methoxyphenyl)urea]	8.9 nM	> 30000 nM	15.4 nM	–	–	–
CC(NC(=O)Nc1ccc(S(=O)(=O)Cc2ccc(CO)cc2)cc1)c1cccc(Cl)c1Cl (stereo not drawn) [H1430, 1-(1-(2,3-dichlorophenyl)ethyl)-3-(4-((4-(hydroxymethyl)benzyl)sulfonyl)phenyl)urea]	56.4 nM	> 30000 nM	2470 nM	–	–	–
COc1cc(S(=O)(=O)Cc2ccc(CO)cc2)ccc1NC(=O)NC(C)c1c(F)cccc1F (stereo not drawn) [H1432, 1-(1-(2,6-difluorophenyl)ethyl)-3-(4-((4-(hydroxymethyl)benzyl)sulfonyl)-2-methoxyphenyl)urea]	367 nM	> 30000 nM	5500 nM	–	–	–
COc1cc(S(=O)(=O)Cc2ccc(CO)cc2)ccc1NC(=O)NC(C)c1ccccc1 (stereo not drawn) [H1433, 1-(4-((4-(hydroxymethyl)benzyl)sulfonyl)-2-methoxyphenyl)-3-(1-phenylethyl)urea]	473 nM	> 30000 nM	3120 nM	–	–	–
COc1cc(S(=O)(=O)Cc2ccc(CO)cc2)ccc1NC(=O)NC(C)c1cccc(Cl)c1Cl (stereo not drawn) [H1434, 1-(1-(2,3-dichlorophenyl)ethyl)-3-(4-((4-(hydroxymethyl)benzyl)sulfonyl)-2-methoxyphenyl)urea]	61.2 nM	> 30000 nM	857 nM	–	–	–
COc1cc(S(=O)(=O)Cc2ccc(CO)cc2)ccc1NC(=O)NC(C)c1ccc(OC)c(Cl)c1Cl (stereo not drawn) [H1435, 1-(1-(2,3-dichloro-4-methoxyphenyl)ethyl)-3-(4-((4-(hydroxymethyl)benzyl)sulfonyl)-2-methoxyphenyl)urea]	> 10000 nM	> 30000 nM	> 30000 nM	–	–	–
COc1cc(S(=O)(=O)Cc2ccc3c(c2)CCN(C)C3)ccc1NC(=O)NC(C)c1c(F)cccc1F (stereo not drawn) [H1436, 1-(1-(2,6-difluorophenyl)ethyl)-3-(2-methoxy-4-(((2-methyl-1,2,3,4-tetrahydroisoquinolin-6-yl)methyl)sulfonyl)phenyl)urea]	4.3 nM	> 30000 nM	19.5 nM	–	–	–
COc1cc(S(=O)(=O)Cc2ccc3c(c2)CN(C)C3)ccc1NC(=O)NC(C)c1c(F)cccc1F (stereo not drawn) [H1437, 1-(1-(2,6-difluorophenyl)ethyl)-3-(2-methoxy-4-(((2-methylisoindolin-5-yl)methyl)sulfonyl)phenyl)urea]	10 nM	> 30000 nM	24.3 nM	–	–	–
COc1cc(S(=O)(=O)Cc2ccc3c(c2)CN(C)C3)ccc1NC(=O)NC(C)c1ccccc1OC (stereo not drawn) [H1438, 1-(2-methoxy-4-(((2-methylisoindolin-5-yl)methyl)sulfonyl)phenyl)-3-(1-(2-methoxyphenyl)ethyl)urea]	2.76 nM	> 30000 nM	12.6 nM	–	–	–
COc1cc(S(=O)(=O)Cc2cc3c(cc2F)CNCC3)ccc1NC(=O)NC(C)c1cccc(Cl)c1Cl (stereo not drawn) [H1439, 1-(1-(2,3-dichlorophenyl)ethyl)-3-(4-(((7-fluoro-1,2,3,4-tetrahydroisoquinolin-6-yl)methyl)sulfonyl)-2-methoxyphenyl)urea]	14.1 nM	> 30000 nM	12.4 nM	–	–	–
COc1cc(S(=O)(=O)Cc2ccc3c(c2)CC(C)N(C)C3)ccc1NC(=O)NC(C)c1ccccc1 (stereo not drawn) [H1440, 1-(4-(((2,3-dimethyl-1,2,3,4-tetrahydroisoquinolin-6-yl)methyl)sulfonyl)-2-methoxyphenyl)-3-(1-phenylethyl)urea]	2.9 nM	> 30000 nM	4.4 nM	–	–	–
COc1ccc(C(C)NC(=O)Nc2ccc(S(=O)(=O)Cc3ccc4c(c3)CCN(C)C4)cc2OC)cc1 (stereo not drawn) [H1442, 1-(2-methoxy-4-(((2-methyl-1,2,3,4-tetrahydroisoquinolin-6-yl)methyl)sulfonyl)phenyl)-3-(1-(4-methoxyphenyl)ethyl)urea]	16.4 nM	> 30000 nM	58.1 nM	–	–	–
COc1cc(S(=O)(=O)Cc2ccc3c(c2)CCNC3)ccc1NC(=O)N(C)C(C)c1cccc(Cl)c1Cl (stereo not drawn) [H1443, 1-(1-(2,3-dichlorophenyl)ethyl)-3-(2-methoxy-4-(((1,2,3,4-tetrahydroisoquinolin-6-yl)methyl)sulfonyl)phenyl)-1-methylurea]	85.8 nM	> 30000 nM	68 nM	–	–	–
COc1ccc(C(C)NC(=O)Nc2ccc(S(=O)(=O)Cc3ccc4c(c3)CNC4)cc2)cc1OC (stereo not drawn) [H1444, 1-(1-(3,4-dimethoxyphenyl)ethyl)-3-(4-((isoindolin-5-ylmethyl)sulfonyl)phenyl)urea]	185 nM	> 30000 nM	2860 nM	–	–	–
COc1ccc(C(C)NC(=O)Nc2ccc(S(=O)(=O)Cc3ccc4c(c3)CN(C)C4)cc2)cc1OC (stereo not drawn) [H1449, 1-(1-(3,4-dimethoxyphenyl)ethyl)-3-(4-(((2-methylisoindolin-5-yl)methyl)sulfonyl)phenyl)urea]	928 nM	> 30000 nM	4170 nM	–	–	–
COc1cccc(OC)c1C(C)NC(=O)Nc1ccc(S(=O)(=O)Cc2ccc3c(c2)CNC3)cc1 (stereo not drawn) [H1450, 1-(1-(2,6-dimethoxyphenyl)ethyl)-3-(4-((isoindolin-5-ylmethyl)sulfonyl)phenyl)urea]	182 nM	> 30000 nM	290 nM	–	–	–
COc1cccc(OC)c1C(C)NC(=O)Nc1ccc(S(=O)(=O)Cc2ccc3c(c2)CN(C)C3)cc1 (stereo not drawn) [H1451, 1-(1-(2,6-dimethoxyphenyl)ethyl)-3-(4-(((2-methylisoindolin-5-yl)methyl)sulfonyl)phenyl)urea]	33.3 nM	> 30000 nM	68.5 nM	–	–	–
CC(NC(=O)Nc1ccc(S(=O)(=O)Cc2ccc3c(c2)CNC3)cc1)c1ccc2c(c1)OCO2 (stereo not drawn) [H1452, 1-(1-(benzo[d][1,3]dioxol-5-yl)ethyl)-3-(4-((isoindolin-5-ylmethyl)sulfonyl)phenyl)urea]	34.8 nM	> 30000 nM	87 nM	–	–	–
CC(NC(=O)Nc1ccc(S(=O)(=O)Cc2ccc3c(c2)CN(C)C3)cc1)c1ccc2c(c1)OCO2 (stereo not drawn) [H1453, 1-(1-(benzo[d][1,3]dioxol-5-yl)ethyl)-3-(4-(((2-methylisoindolin-5-yl)methyl)sulfonyl)phenyl)urea]	46.8 nM	> 30000 nM	109 nM	–	–	–
NC(=O)C(NC(=O)Nc1ccc(S(=O)(=O)Cc2ccc3c(c2)CNC3)cc1)c1ccccc1 (stereo not drawn) [H1457, 2-(3-(4-((isoindolin-5-ylmethyl)sulfonyl)phenyl)ureido)-2-phenylacetamide]	–	–	–	123 nM	> 30000 nM	16600 nM
